Data from patent US5599937A, “Heteroaromatic quinuclidinenes, their use and preparation” (Pharmacia AB, priority 1992, dated 1997).
Like-named read-outs stand apart in the source and are kept apart here.

How the values were obtained:
[1] = target: T1, smooth muscle strips of the urinary bladder (Cavia porcellus, UniProt H0W1Z3); test: Functional in vitro study: antimuscarinic activity (antagonism of carbachol contraction) on urinary bladder strips; design: species or system guinea pig
T1 construct: Smooth muscle strips of the urinary bladder and ileum (longitudinal muscle only) were dissected; from tissue; host or cells: guinea pig urinary bladder smooth muscle strips
T1 sequence (H0W1Z3 1-590): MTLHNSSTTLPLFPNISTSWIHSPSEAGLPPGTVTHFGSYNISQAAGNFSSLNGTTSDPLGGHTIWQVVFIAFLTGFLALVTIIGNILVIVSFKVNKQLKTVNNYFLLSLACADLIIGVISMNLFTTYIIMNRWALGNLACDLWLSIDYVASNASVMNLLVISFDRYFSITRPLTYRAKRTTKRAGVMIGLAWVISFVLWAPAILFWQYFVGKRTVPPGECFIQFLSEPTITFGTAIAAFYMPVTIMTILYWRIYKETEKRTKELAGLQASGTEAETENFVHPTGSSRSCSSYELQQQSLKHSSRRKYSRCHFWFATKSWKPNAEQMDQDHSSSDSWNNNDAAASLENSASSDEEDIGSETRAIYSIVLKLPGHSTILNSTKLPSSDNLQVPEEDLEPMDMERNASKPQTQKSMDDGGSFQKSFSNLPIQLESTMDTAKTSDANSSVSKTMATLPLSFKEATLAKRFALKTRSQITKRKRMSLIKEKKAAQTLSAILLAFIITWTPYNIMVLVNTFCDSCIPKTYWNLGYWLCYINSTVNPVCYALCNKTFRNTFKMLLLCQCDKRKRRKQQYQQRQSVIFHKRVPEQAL
Description: (§1) Male guinea pigs, weighing about 300 g, were killed by a blow on the neck and exsanguinated. Smooth muscle strips of the urinary bladder and ileum (longitudinal muscle only) were dissected in a Krebs-Henseleit solution (pH 7.4). The strip preparations were then vertically mounted between two hooks in thermostatically controlled (37° C.) organ baths (5 mL). One of the hooks was adjustable and connected to a force transducer (FT 03, Grass Instruments). The Krebs-Henseleit solution was continuously bubbled with carbogen gas (93.5% O2 /6.5% CO2) to maintain pH at 7.4. Isometric tension was recorded by a Grass Polygraph (model 79D). A resting tension of approximately 5 mN was initially applied on each muscle strip and the preparations were allowed to stabilize for at least 45 min. The resting tension was repeatedly adjusted and the preparations were washed several times during the stabilization period.
(§2) The urinary bladder strips were used for evaluation of antimuscarinic activity and the ileal preparations for studies of muscarinic activity. Carbachol (carbamylcholine chloride) was used as the standard agonist. Concentration-response curves to agonists were generated either by the cumulative dose-response technique (bladder strip) or by the addition of single agonist concentrations (ileal preparations). In the latter case, the preparations were washed and allowed to rest between each concentration of agonist. EC50 values were graphically determined.
In studies of antagonism, a control concentration-response curve to carbachol was generated by cumulative addition of carbachol to the bladder strip (i.e., stepwise increase of the agonist concentration until the maximal contractile response was reached), followed by washing out and a resting period of at least 15 min. before a fix concentration of the test compound (antagonist) was added to the organ-bath. After 60 min. of incubation, a second cumulative concentration-response curve to carbachol was generated. Responses were expressed as percent of the maximal response to carbachol. EC50 -values for carbachol in the absence (control) and presence of antagonist were graphically derived and dose ratios (r) were calculated. Dissociation constants, Kb, for the antagonists were then calculated using the following equation (1), where [A] is the concentration of test compound.

[2] = system: ileum (longitudinal muscle); test: Functional in vitro study: muscarinic (agonistic) activity on ileal preparations; conditions: Cavia porcellus, guinea pig ileum, read-out: agonistic effect on ileum in relation to maximal carbachol response (Emax)
Description: as §1
as §2, with “In the latter case, the preparations were washed and allowed to rest between each concentration of agonist.” left out, “determined. […]” for “determined.”

[3] = read-out: Kb (dissociation constant for the antagonist)

| SMILES | Kb [1, 3] | Kb [1] | also measured |
| --- | --- | --- | --- |
| Cc1ccc(C2=CN3CCC2CC3)s1 [Example 19, 3-(5-methyl-2-thienyl)quinuclidin-2-ene] | 320 nM |  | Emax at 500 µM [2]: 10% |
| Cc1ccc(C2=CN3CCC2CC3)o1 [Example 17, 3-(5-Methyl-2-furyl)quinuclidin-2-ene] | 61 nM |  |  |
| Cc1ccc(C2(O)CN3CCC2CC3)o1 (stereo not drawn) [Example 4, 3-(5-Methyl-2-furyl)quinuclidin-3-ol] |  | 1200 nM |  |
| OC1(c2occc2Br)CN2CCC1CC2 (stereo not drawn) [Example 7, 3-(3-Bromo-2-furyl)quinuclidin-3-ol] |  |  | Kb ([1]; read-out: Kb (dissociation constant for the antagonist), guinea pig urinary bladder strip, antagonism of carbachol, 60 min incubation, Kb=[A]/r-1): 11000 nM |
| CCc1ccc(C2(O)CN3CCC2CC3)o1 (stereo not drawn) [Example 8, 3-(5-Ethyl-2-furyl)quinuclidin-3-ol] |  | 6700 nM |  |
| Cc1ccc(C2(O)CN3CCC2CC3)s1 (stereo not drawn) [Example 6, 3-(5-Methylthienyl)quinuclidin-3-ol] |  | 23000 nM |  |

More lines, main results first:

| Kb [1, 3] | SMILES | Kb [1] | also measured |
| --- | --- | --- | --- |
| 2600 nM | COC(=O)c1ccc(C2=CN3CCC2CC3)o1 [Example 31, 3-(2-Methoxycarbonyl-5-furyl)-quinuclidin-2-ene] |  | Emax at 500 µM [2]: 21% |
| 2.7 nM | C1=C(c2occc2-c2ccccc2)C2CCN1CC2 [Example 27, 3-(3-Phenylfuran-2-yl)quinuclidin-2-ene] |  |  |
| 1020 nM | C1=C(c2ccc(-c3ccccc3)o2)C2CCN1CC2 [Example 29, 3-(5-Phenylfuran-2-yl)quinuclidin-2-ene] |  |  |
| 31 nM | CCc1ccc(C2=CN3CCC2CC3)o1 [Example 21, 3-(5-Ethyl-2-furyl)quinuclidin-2-ene] |  |  |
